According to US20260176249A1, “PROTEIN KINASE INHIBITOR, PREPARATION METHOD THEREFOR, AND APPLICATION THEREOF” (SHANDONG LUYE PHARMACEUTICAL CO., LTD., priority 2021, published 2026):

Columns and labels:
[1] = biological target: T1, PLK1 kinase (Homo sapiens, UniProt P53350); assay: Inhibitory activity on PLK1 kinase; type: biochemical; settings: for Imax: maximum effect caused by the compound at the test concentration
T1 construct: purchased Carnabio (Carna Biosciences) 05-157
Method: Detection solution PerkinElmer #TRF0218-M
Detection instrument PerkinElemer EnVision
a. Using the Echo machine, the compounds to be tested were diluted by 1:3 on a 384-well plate, and the highest concentration was 1 μM, with a total of 10 concentration points, and each concentration was tested in duplicate wells.
b. 5 μL/well of PLK1 kinase and peptide substrate mixture were added to the assay plate (containing controls).
d. The reaction was initiated by adding 5 μL/well of ATP solution;
e. The assay plate was centrifuged at 1000 rpm for about 15 seconds, a film was used to seal the assay plate which was incubated at 23° C. for a period of time;
f. A detection solution was added to all wells of the assay plate;
g. The assay plate was centrifuged at 1000 rpm for approximately 15 seconds, a film was used to seal the assay plate which was incubated at 23° C. for 60 min.
h. The assay plate was read on EnVision. The test results were analyzed using XLFIT5 software.

[2] = tested on: HCT116 cells; assay: Inhibitory activity on HCT116 cell proliferation (ATPlite); type: cell-based; settings: Homo sapiens, HCT-116, 72 h
Method: Cell culture medium: RPMI1640+10% FBS (GBICO)
Cell culture plate: 96-well plate (Shanghai Jingan Biotechnology Co., Ltd.)
Detection kit: ATPlite 1step Luminescence (PerkinElmer)
Detection instrument: BioTek multifunctional microplate reader
2. Test method: HCT116 cells in the logarithmic growth phase were seeded into a white-wall clear-bottom 96-well plate at a density of 720 cells per well, and cultured overnight in a 37° C., 5% CO2 incubator. […] After adding the drug, culturing was continued for 72 h in a 37° C., 5% CO2 incubator.
GraphPad Prism 7.0 was used to process the data, the cell inhibition rate curve was obtained and IC50 was calculated.

T1 sequence (P53350 whole entry): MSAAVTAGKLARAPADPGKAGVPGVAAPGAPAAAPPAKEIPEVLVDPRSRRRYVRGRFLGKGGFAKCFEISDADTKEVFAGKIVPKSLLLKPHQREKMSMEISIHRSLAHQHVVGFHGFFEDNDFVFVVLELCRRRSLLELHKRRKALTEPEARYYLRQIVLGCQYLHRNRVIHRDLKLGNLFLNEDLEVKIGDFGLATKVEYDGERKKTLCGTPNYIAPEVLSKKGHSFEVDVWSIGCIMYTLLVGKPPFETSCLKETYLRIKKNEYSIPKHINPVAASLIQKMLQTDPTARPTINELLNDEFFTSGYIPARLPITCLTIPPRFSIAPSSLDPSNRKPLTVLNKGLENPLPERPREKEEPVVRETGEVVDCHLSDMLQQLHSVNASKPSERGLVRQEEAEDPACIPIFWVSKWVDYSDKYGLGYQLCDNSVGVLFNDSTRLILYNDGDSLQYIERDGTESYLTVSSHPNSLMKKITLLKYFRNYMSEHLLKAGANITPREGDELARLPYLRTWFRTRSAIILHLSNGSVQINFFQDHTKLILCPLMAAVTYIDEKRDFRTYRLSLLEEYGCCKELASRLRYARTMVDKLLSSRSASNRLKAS

SMILES | IC50 [1] [pM] | Imax [1] [%] | IC50 [2] [pM]
CN1CCN(c2ccc(OC(F)(F)F)c(Nc3ncc4ccc5c(C(=O)NO)nn(CCF)c5c4n3)c2)CC1 [Compound 25] | 1120 | 100.23 | 
CN1CCN(c2ccc(OC(F)(F)F)c(Nc3ncc4ccc5c(C(N)=O)nn(C6CC6)c5c4n3)c2)CC1 [Compound 27] | 459 | 100.24 | 
CN1CCN(c2ccc(OC(F)(F)F)c(Nc3ncc4ccc5c(C(N)=O)nn(CC(F)(F)F)c5c4n3)c2)CC1 [Compound 28] | 670 | 100.08 | 
CCn1nc(C(N)=O)c2ccc3cnc(Nc4cc(N5CCN(C)CC5)ccc4OC(F)(F)F)nc3c21 [Compound 29] |  |  | 77000
CN1CCN(c2ccc(OC(F)(F)F)c(Nc3ncc4ccc5c(C(=O)NOCCO)nn(CCF)c5c4n3)c2)CC1 [Compound 30] | 776 | 99.97 | 
CN1CCN(c2ccc(OC(F)(F)F)c(Nc3ncc4ccc5c(C(=O)NOCCO)nn(CCO)c5c4n3)c2)CC1 [Compound 31] | 1550 | 99.54 | 
CN1CCN(c2ccc(OC(F)(F)F)c(Nc3ncc4ccc5c(C(=O)NO)nn(CC(F)(F)F)c5c4n3)c2)CC1 [Compound 32] | 463 | 99.87 | 
C[C@@H](Oc1cc(-n2cnc3ccc(CN4CCN(C)CC4)cc32)sc1C(N)=O)c1ccccc1C(F)(F)F [GSK461364, reference compound] |  | 101.08 | 
